# Literature values in patent publication US20120211706A1, “POLYDENTATE LIGAND METAL COMPLEX” (SUMITOMO CHEMICAL COMPANY, LIMITED, priority 2009, published 2012).
# Where a name gives a salt, the structure may show the parent alone.
# Details: 1N aqueous sulfuric acid solution
structure (smiles),measurement,value
C=C[C@H]1C[N@@]2CC[C@H]1C[C@H]2[C@H](O)c1ccnc2ccc(OC)cc12 [quinine sulfate],emission quantum yield of standard sample,55%
